This passage reports mutagenic call results from PubChem BioAssay AID1259407 (Chemical Carcinogenesis Research Information System (CCRIS), 2018).

The subject of this data set is CCRIS mutagenicity, Ames/micronucleus/aberration tests. Nature of the data set: CCRIS mutagenicity studies.
Setting [1] is: Test System: AMES SALMONELLA TYPHIMURIUM, Strain/Indicator: TA98, Metabolic Activation: NONE, Method: STANDARD PLATE.
[2] abbreviates: Test System: AMES SALMONELLA TYPHIMURIUM, Strain/Indicator: TA98, Metabolic Activation: RAT, LIVER, S-9, AROCLOR 1254, Method: STANDARD PLATE.
Setting [3] is: Test System: AMES SALMONELLA TYPHIMURIUM, Strain/Indicator: TA100, Metabolic Activation: NONE, Method: STANDARD PLATE.
[4] abbreviates: Test System: AMES SALMONELLA TYPHIMURIUM, Strain/Indicator: TA100, Metabolic Activation: RAT, LIVER, S-9, AROCLOR 1254, Method: STANDARD PLATE.
The mark [5] stands for this setting: Test System: AMES SALMONELLA TYPHIMURIUM, Strain/Indicator: TA1535, Metabolic Activation: NONE, Method: STANDARD PLATE.
[6] abbreviates: Test System: AMES SALMONELLA TYPHIMURIUM, Strain/Indicator: TA1537, Metabolic Activation: NONE, Method: STANDARD PLATE.
Setting [7] is: Test System: AMES SALMONELLA TYPHIMURIUM, Strain/Indicator: TA1538, Metabolic Activation: NONE, Method: STANDARD PLATE.

Structures are written as SMILES. Calls of active or inactive are those of the source. How the calls were made is not given here.

Consider `C=C(C)C(=O)OCCOC(=O)C(=C)C`, for which the mutagenic call is, setting by setting: (Test System: AMES SALMONELLA TYPHIMURIUM, Strain/Indicator: TA98, Metabolic Activation: HAMSTER, LIVER, S-9, AROCLOR 1254, Method: STANDARD PLATE) “inactive; negative”; under setting [1], “inactive; negative”; (Test System: AMES SALMONELLA TYPHIMURIUM, Strain/Indicator: TA98, Metabolic Activation: RAT, LIVER, AROCLOR 1254, Method: STANDARD PLATE) “inactive; negative”; under setting [2], “inactive; negative”; (Test System: AMES SALMONELLA TYPHIMURIUM, Strain/Indicator: TA98, Metabolic Activation: RAT, LIVER, S-9, SODIUM PHENOBARBITAL, Method: STANDARD PLATE) “inactive; negative”; (Test System: AMES SALMONELLA TYPHIMURIUM, Strain/Indicator: TA100, Metabolic Activation: HAMSTER, LIVER, S-9, AROCLOR 1254, Method: STANDARD PLATE) “inactive; negative”. Further, the mutagenic call reads like this: under setting [3], “inactive; negative”; under setting [4], “inactive; negative”; (Test System: AMES SALMONELLA TYPHIMURIUM, Strain/Indicator: TA100, Metabolic Activation: RAT, LIVER, S-9, SODIUM PHENOBARBITAL, Method: STANDARD PLATE) “inactive; negative”; (Test System: AMES SALMONELLA TYPHIMURIUM, Strain/Indicator: TA1535, Metabolic Activation: HAMSTER, LIVER, S-9, AROCLOR 1254, Method: STANDARD PLATE) “inactive; negative”; under setting [5], “inactive; negative”; (Test System: AMES SALMONELLA TYPHIMURIUM, Strain/Indicator: TA1535, Metabolic Activation: RAT, LIVER, S-9, AROCLOR 1254, Method: STANDARD PLATE) “inactive; negative”. For the same compound, the mutagenic call is, setting by setting: (Test System: AMES SALMONELLA TYPHIMURIUM, Strain/Indicator: TA1535, Metabolic Activation: RAT, LIVER, S-9, SODIUM PHENOBARBITAL, Method: STANDARD PLATE) “inactive; negative”; (Test System: AMES SALMONELLA TYPHIMURIUM, Strain/Indicator: TA1537, Metabolic Activation: HAMSTER, LIVER, S-9, AROCLOR 1254, Method: STANDARD PLATE) “inactive; negative”; under setting [6], “inactive; negative”; (Test System: AMES SALMONELLA TYPHIMURIUM, Strain/Indicator: TA1537, Metabolic Activation: RAT, LIVER, S-9, AROCLOR 1254, Method: STANDARD PLATE) “inactive; negative”; (Test System: AMES SALMONELLA TYPHIMURIUM, Strain/Indicator: TA1537, Metabolic Activation: RAT, LIVER, S-9, SODIUM PHENOBARBITAL, Method: STANDARD PLATE) “inactive; negative”; under setting [7], “inactive; negative”. Further, the mutagenic call by setting is: (Test System: AMES SALMONELLA TYPHIMURIUM, Strain/Indicator: TA1538, Metabolic Activation: RAT, LIVER, S-9, AROCLOR 1254, Method: STANDARD PLATE) “inactive; negative”; (Test System: AMES SALMONELLA TYPHIMURIUM, Strain/Indicator: TA1538, Metabolic Activation: RAT, LIVER, S-9, SODIUM PHENOBARBITAL, Method: STANDARD PLATE) “inactive; negative”; (Test System: Mouse lymphoma, Strain/Indicator: L5178Y (tk+/tk-), Metabolic Activation: Rat, Liver, S-9, Aroclor 1254, Method: Suspension/plate) “active; positive”.
As to `CCCC[C@@H](C)[C@@H](OC(=O)C[C@@H](CC(=O)O)C(=O)O)[C@H](C[C@@H](C)CCCCCC[C@@H](O)C[C@H](O)[C@H](C)N)OC(=O)C[C@@H](CC(=O)O)C(=O)O`, the mutagenic call by setting is: (Test System: AMES SALMONELLA TYPHIMURIUM, Strain/Indicator: TA97A, Metabolic Activation: NONE, Method: STANDARD PLATE) “inactive; negative”; (Test System: AMES SALMONELLA TYPHIMURIUM, Strain/Indicator: TA97A, Metabolic Activation: RAT, LIVER, S-9, AROCLOR 1254, Method: STANDARD PLATE) “inactive; negative”; under setting [1], “inactive; negative”; under setting [2], “inactive; negative”; under setting [3], “inactive; negative”; under setting [4], “inactive; negative”. The mutagenic call by setting is: (Test System: AMES SALMONELLA TYPHIMURIUM, Strain/Indicator: TA102, Metabolic Activation: NONE, Method: STANDARD PLATE) “inactive; negative”; (Test System: AMES SALMONELLA TYPHIMURIUM, Strain/Indicator: TA102, Metabolic Activation: RAT, LIVER, S-9, AROCLOR 1254, Method: STANDARD PLATE) “inactive; negative”.
As to `C=CC(=O)OCCOCCOCCOCCOC(=O)C=C`, the mutagenic call (Test System: AMES SALMONELLA TYPHIMURIUM, Strain/Indicator: TA98, Metabolic Activation: HAMSTER, LIVER, S-9, AROCLOR 1254 (10%), Method: PREINCUBATION) is “inactive; negative”; the mutagenic call (Test System: AMES SALMONELLA TYPHIMURIUM, Strain/Indicator: TA98, Metabolic Activation: NONE, Method: PREINCUBATION) is “inactive; negative”; the mutagenic call (Test System: AMES SALMONELLA TYPHIMURIUM, Strain/Indicator: TA98, Metabolic Activation: RAT, LIVER, S-9, AROCLOR 1254 (10%), Method: PREINCUBATION) was “inactive; negative”; the mutagenic call (Test System: AMES SALMONELLA TYPHIMURIUM, Strain/Indicator: TA100, Metabolic Activation: HAMSTER, LIVER, S-9, AROCLOR 1254 (10%), Method: PREINCUBATION) was “inactive; negative”; the mutagenic call (Test System: AMES SALMONELLA TYPHIMURIUM, Strain/Indicator: TA100, Metabolic Activation: NONE, Method: PREINCUBATION) was “inactive; negative”; the mutagenic call (Test System: AMES SALMONELLA TYPHIMURIUM, Strain/Indicator: TA100, Metabolic Activation: RAT, LIVER, S-9, AROCLOR 1254 (10%), Method: PREINCUBATION) was “inactive; negative”. The mutagenic call by setting is: (Test System: AMES SALMONELLA TYPHIMURIUM, Strain/Indicator: TA1535, Metabolic Activation: HAMSTER, LIVER, S-9, AROCLOR 1254 (10%), Method: PREINCUBATION) “inactive; negative”; (Test System: AMES SALMONELLA TYPHIMURIUM, Strain/Indicator: TA1535, Metabolic Activation: NONE, Method: PREINCUBATION) “inactive; negative”; (Test System: AMES SALMONELLA TYPHIMURIUM, Strain/Indicator: TA1535, Metabolic Activation: RAT, LIVER, S-9, AROCLOR 1254 (10%), Method: PREINCUBATION) “inactive; negative”; (Test System: AMES SALMONELLA TYPHIMURIUM, Strain/Indicator: TA1537, Metabolic Activation: HAMSTER, LIVER, S-9, AROCLOR 1254 (10%), Method: PREINCUBATION) “inactive; negative”; (Test System: AMES SALMONELLA TYPHIMURIUM, Strain/Indicator: TA1537, Metabolic Activation: NONE, Method: PREINCUBATION) “inactive; negative”; (Test System: AMES SALMONELLA TYPHIMURIUM, Strain/Indicator: TA1537, Metabolic Activation: RAT, LIVER, S-9, AROCLOR 1254 (10%), Method: PREINCUBATION) “inactive; negative”. Besides, the mutagenic call reads like this: (Test System: CHINESE HAMSTER OVARY, Strain/Indicator: CHO-K1-BH4 (HGPRT)/6-THIOGUANINE, Metabolic Activation: NONE, Method: SUSPENSION/PLATE) “active; positive”; (Test System: CHINESE HAMSTER OVARY, Strain/Indicator: CHO-K1-BH4 (HGPRT), Metabolic Activation: NONE, Method: MONOLAYER) “active; positive”; (Test System: CHINESE HAMSTER OVARY, Strain/Indicator: CHO-K1-BH4 (HGPRT), Metabolic Activation: NONE, Method: SUSPENSION/PLATE) “active; positive”; (Test System: MOUSE LYMPHOMA, Strain/Indicator: L5178Y (TK+/TK-), Metabolic Activation: NONE, Method: SUSPENSION/PLATE) “active; positive”.
In the case of `C=CCN(CC=C)CCN(CC=C)CC=C.[Cl-].[Cl-].[Pd+2]`, the mutagenic call (Test System: AMES SALMONELLA TYPHIMURIUM, Strain/Indicator: TA92, Metabolic Activation: NONE, Method: STANDARD PLATE) is “inactive; negative”; the mutagenic call under setting [1] is “inactive; negative”; the mutagenic call under setting [3] was “inactive; negative”; the mutagenic call (Test System: AMES SALMONELLA TYPHIMURIUM, Strain/Indicator: TA2410, Metabolic Activation: NONE, Method: STANDARD PLATE) was “inactive; negative”; the mutagenic call (Test System: E. COLI, Strain/Indicator: TM6, Metabolic Activation: NONE, Method: STANDARD PLATE) is “active; positive”; the mutagenic call (Test System: E. COLI, Strain/Indicator: TM9, Metabolic Activation: NONE, Method: STANDARD PLATE) was “active; positive”.
On to `O=[N+]([O-])c1c(-c2ccc(Cl)cc2)nc2n1CCS2`, for which the mutagenic call is “inactive; negative” under setting [1]; “active; positive” under setting [3]; “inactive; negative” under setting [5]; “active; positive” under setting [6]; “inactive; negative” under setting [7].
